Experimental data taken from patent US20080175800A1, “USE OF SPECIFIC MENTHYL 3-OXOCARBOXYLIC ACID ESTERS AS PHYSIOLOGICALLY ACTIVE COOLING SUBSTANCES” (SYMRISE GmbH & Co. KG, priority 2007, published 2008).

What was measured:
[1] = Sensory evaluation in confectioner's fondant by a panel of experts (cooling action); format: in vivo; conditions: 0.05 wt. % in confectioner's fondant; for cooling action: scale from 1 (no cooling action) to 9 (extremely strong cooling action)
Protocol: The compounds from Examples 1 and 2 were tested for their sensory properties, in particular their cooling action. To this end, they were dissolved, in each case in a specific final concentration, in a mass prepared from sucrose (saccharose) and water (confectioner's fondant, supplier Nordzucker AG, Nordstemmen) and evaluated by a panel of experts. Sensory impressions were rated and the cooling action was assessed on a scale from 1 (no cooling action) to 9 (extremely strong cooling action).

[2] = Skin-cooling characteristics, application site forearm; format: in vivo; conditions: forearm of human test subjects; compared with L-menthyl lactate (Frescolat ML)

## CCC(=O)CC(=O)O[C@@H]1C[C@H](C)CC[C@H]1C(C)C [Example 2, (L)-menthyl 3-oxo-pentanoate]
[1]; compared with Example 1
  onset and duration of cooling action: slower onset but longer lasting than Example 1
[1]
  cooling action: 5-6
[2]
  skin intensity of cooling: overall weaker intensity of cooling

## CC(=O)CC(=O)O[C@@H]1C[C@H](C)CC[C@H]1C(C)C [Example 1, (L)-menthyl 3-oxo-butyrate]
[1]
  cooling action: 5-6
[2]
  skin intensity of cooling: overall weaker intensity of cooling
